One block for each compound: values may come before it.
What was measured:
Type in all cases: functional
DU-145 = assay: Growth inhibition of human DU145 cells after 48 hrs by sulforhodamine B assay; conditions: DU-145, 48 h
NCI-H522 = assay: Growth inhibition of human NCI-H522 cells after 48 hrs by sulforhodamine B assay; conditions: NCI-H522, 48 h
SN12C = assay: Growth inhibition of human SN12C cells after 48 hrs by sulforhodamine B assay
[1] = Growth inhibition of human Hs 578T cells after 48 hrs by sulforhodamine B assay
[2] = Growth inhibition of human OVCAR4 cells after 48 hrs by sulforhodamine B assay; conditions: OVCAR-4, 48 h
NCI-H226 = assay: Growth inhibition of human NCI-H226 cells after 48 hrs by sulforhodamine B assay; conditions: NCI-H226, 48 h
UACC-62 = assay: Growth inhibition of human UACC62 cells after 48 hrs by sulforhodamine B assay; conditions: UACC-62, 48 h
MDA-MB-468 = assay: Growth inhibition of human MDA-MB-468 cells after 48 hrs by sulforhodamine B assay; conditions: MDA-MB-468, 48 h
HT-29 = assay: Growth inhibition of human HT-29 cells after 48 hrs by sulforhodamine B assay; conditions: HT-29, 48 h
SK-MEL-2 = assay: Growth inhibition of human SK-MEL-2 cells after 48 hrs by sulforhodamine B assay; conditions: SK-MEL-2, 48 h
ACHN = assay: Growth inhibition of human ACHN cells after 48 hrs by sulforhodamine B assay
TK-10 = assay: Growth inhibition of human TK10 cells after 48 hrs by sulforhodamine B assay; conditions: TK-10, 48 h
U-251 = assay: Growth inhibition of human U251 cells after 48 hrs by sulforhodamine B assay; conditions: U-251, 48 h
NCI-H23 = assay: Growth inhibition of human NCI-H23 cells after 48 hrs by sulforhodamine B assay; conditions: NCI-H23, 48 h
MCF7 = assay: Growth inhibition of human MCF7 cells after 48 hrs by sulforhodamine B assay; conditions: MCF7, 48 h
IGROV-1 = assay: Growth inhibition of human IGROV1 cells after 48 hrs by sulforhodamine B assay; conditions: IGROV-1, 48 h
Malme-3M = assay: Growth inhibition of human MALME-3M cells after 48 hrs by sulforhodamine B assay
[3] = Growth inhibition of human UACC257 cells after 48 hrs by sulforhodamine B assay; conditions: UACC-257, 48 h
SK-MEL-28 = assay: Growth inhibition of human SK-MEL-28 cells after 48 hrs by sulforhodamine B assay; conditions: SK-MEL-28, 48 h
MDA-MB-231 = assay: Growth inhibition of human MDA-MB-231 cells after 48 hrs by sulforhodamine B assay; conditions: MDA-MB-231, 48 h
SNB-19 = assay: Growth inhibition of human SNB19 cells after 48 hrs by sulforhodamine B assay; conditions: SNB-19, 48 h
[4] = Growth inhibition of human OVCAR5 cells after 48 hrs by sulforhodamine B assay; conditions: OVCAR-5, 48 h
T47D = assay: Growth inhibition of human T47D cells after 48 hrs by sulforhodamine B assay
HCT-116 = assay: Growth inhibition of human HCT116 cells after 48 hrs by sulforhodamine B assay; conditions: HCT-116, 48 h
PC-3 = assay: Growth inhibition of human PC3 cells after 48 hrs by sulforhodamine B assay; conditions: PC-3, 48 h
SK-OV-3 = assay: Growth inhibition of human SKOV3 cells after 48 hrs by sulforhodamine B assay; conditions: SK-OV-3, 48 h
SF-268 = assay: Growth inhibition of human SF268 cells after 48 hrs by sulforhodamine B assay; conditions: SF-268, 48 h
HOP-62 = assay: Growth inhibition of human HOP62 cells after 48 hrs by sulforhodamine B assay; conditions: HOP-62, 48 h
A498 = assay: Growth inhibition of human A498 cells after 48 hrs by sulforhodamine B assay; conditions: A498, 48 h
786-0 = assay: Growth inhibition of human 786-0 cells after 48 hrs by sulforhodamine B assay; conditions: 786-0, 48 h
NCI-H460 = assay: Growth inhibition of human NCI-H460 cells after 48 hrs by sulforhodamine B assay; conditions: NCI-H460, 48 h
OVCAR-3 = assay: Growth inhibition of human OVCAR3 cells after 48 hrs by sulforhodamine B assay; conditions: OVCAR-3, 48 h
OVCAR-8 = assay: Growth inhibition of human OVCAR8 cells after 48 hrs by sulforhodamine B assay; conditions: OVCAR-8, 48 h
BT-549 = assay: Growth inhibition of human BT549 cells after 48 hrs by sulforhodamine B assay; conditions: BT-549, 48 h
[5] = Growth inhibition of human NCI-ADR-RES cells after 48 hrs by sulforhodamine B assay
NCI-H322M = assay: Growth inhibition of human NCI-H322M cells after 48 hrs by sulforhodamine B assay
[6] = Growth inhibition of human SF539 cells after 48 hrs by sulforhodamine B assay; conditions: SF-539, 48 h
[7] = Growth inhibition of human HCC2998 cells after 48 hrs by sulforhodamine B assay; conditions: HCC 2998, 48 h
A549 = assay: Growth inhibition of human A549 cells after 48 hrs by sulforhodamine B assay; conditions: A549, 48 h
[8] = Growth inhibition of human RXF393 cells after 48 hrs by sulforhodamine B assay; conditions: RXF 393, 48 h
[9] = Growth inhibition of human HOP92 cells after 48 hrs by sulforhodamine B assay; conditions: HOP-92, 48 h
[10] = Growth inhibition of human UO31 cells after 48 hrs by sulforhodamine B assay; conditions: UO-31, 48 h
MDA-MB-435 = assay: Growth inhibition of human MDA-MB-435 cells after 48 hrs by sulforhodamine B assay; conditions: MDA-MB-435, 48 h
HCT-15 = assay: Growth inhibition of human HCT15 cells after 48 hrs by sulforhodamine B assay; conditions: HCT-15, 48 h

- GI50 (DU-145): 23 µM
- GI50 (NCI-H522): 0.891 µM
- GI50 (NCI-H226): 5.34 µM
- GI50 (MDA-MB-468): 4.76 µM
- GI50 (HT-29): 3.39 µM
- GI50 (SK-MEL-2): 7.29 µM
- GI50 (ACHN): 6.13 µM
- GI50 (U-251): 3.94 µM
- GI50 (NCI-H23): 18.7 µM
- GI50 (MCF7): 4.02 µM
- GI50 (SK-MEL-28): 1.52 µM
- GI50 (MDA-MB-231): 6.35 µM
- GI50 (T47D): 2.44 µM
- GI50 (HCT-116): 2.09 µM
- GI50 (PC-3): 1.71 µM
- GI50 (SK-OV-3): 2.53 µM
- GI50 (786-0): 5.47 µM
- GI50 (NCI-H460): 3.69 µM
- GI50 (OVCAR-3): 7.14 µM
- GI50 (OVCAR-8): 4.19 µM
- GI50 (BT-549): 4.17 µM
- GI50 (NCI-H322M): 22.4 µM
- GI50 (A549): 3.29 µM
Structure (SMILES): COc1ccc(-n2nc(C)c3c2N(C)C2(C)CC4C3(C)C3CC4(C2)N(C)c2c(c(C)nn2-c2ccc(OC)cc2)C3C)cc1 (stereo not drawn)
- GI50 (SN12C): 8.07 µM
- GI50 [1]: 4.27 µM
- GI50 [2]: 5.95 µM
- GI50 (UACC-62): 12.6 µM
- GI50 (TK-10): 4.77 µM
- GI50 (IGROV-1): 19.5 µM
- GI50 (Malme-3M): 6.34 µM
- GI50 [3]: 2.34 µM
- GI50 (SNB-19): 4.45 µM
- GI50 [4]: > 100 µM
- GI50 (SF-268): 4.08 µM
- GI50 (HOP-62): 3.1 µM
- GI50 (A498): 3.95 µM
- GI50 [5]: 8.03 µM
- GI50 [6]: 63.5 µM
- GI50 [7]: 9.65 µM
- GI50 [8]: 2.92 µM

- GI50 (NCI-H522): 3.88 µM
- GI50 (NCI-H226): > 100 µM
- GI50 (SK-MEL-2): > 100 µM
- GI50 (NCI-H23): > 100 µM
- GI50 (MCF7): 3.46 µM
- GI50 (SK-MEL-28): 3.14 µM
- GI50 (MDA-MB-231): > 100 µM
- GI50 (T47D): 2.64 µM
- GI50 (PC-3): 0.591 µM
- GI50 (SK-OV-3): 24.1 µM
- GI50 (786-0): > 100 µM
- GI50 (BT-549): > 100 µM
- GI50 (NCI-H322M): > 100 µM
Structure (SMILES): Cc1nn(-c2ccccc2)c2c1C(C)C1CC3(CC4(C)CC3C1(C)c1c(C)nn(-c3ccccc3)c1N4C)N2C (stereo not drawn)
- GI50 (SN12C): > 100 µM
- GI50 [1]: > 100 µM
- GI50 [2]: 8.66 µM
- GI50 (TK-10): > 100 µM
- GI50 (IGROV-1): > 100 µM
- GI50 (Malme-3M): > 100 µM
- GI50 [9]: 0.792 µM
- GI50 (SNB-19): > 100 µM
- GI50 [4]: > 100 µM
- GI50 (SF-268): > 100 µM
- GI50 (HOP-62): 18.3 µM
- GI50 (A498): > 100 µM
- GI50 [5]: > 100 µM
- GI50 [10]: > 100 µM
- GI50 [6]: > 100 µM
- GI50 [7]: > 100 µM
- GI50 [8]: 3.41 µM

- GI50 (DU-145): 8.7 µM
- GI50 (NCI-H522): 2.12 µM
- GI50 (NCI-H226): 15.3 µM
- GI50 (MDA-MB-468): 2.9 µM
- GI50 (HT-29): 3.59 µM
- GI50 (SK-MEL-2): 6.78 µM
- GI50 (ACHN): 4.78 µM
- GI50 (U-251): 4.44 µM
- GI50 (NCI-H23): 7.99 µM
- GI50 (MCF7): 2.99 µM
- GI50 (MDA-MB-435): 4.12 µM
- GI50 (SK-MEL-28): 2.26 µM
- GI50 (MDA-MB-231): 4.55 µM
- GI50 (T47D): 2.13 µM
- GI50 (HCT-116): 3.72 µM
- GI50 (PC-3): 0.979 µM
- GI50 (SK-OV-3): 4.64 µM
- GI50 (786-0): 11.8 µM
- GI50 (NCI-H460): 3.35 µM
- GI50 (OVCAR-3): 4.58 µM
- GI50 (OVCAR-8): 5.41 µM
- GI50 (BT-549): 5.55 µM
- GI50 (NCI-H322M): 33.8 µM
- GI50 (HCT-15): 3.67 µM
- GI50 (A549): 2.37 µM
Structure (SMILES): C=C1c2c(C)nn(-c3ccccc3)c2N(C)C23CC1C1(C)c4c(C)nn(-c5ccccc5)c4N(C)C(C)(CC12)C3 (stereo not drawn)
- GI50 (SN12C): 9.92 µM
- GI50 [1]: 5.67 µM
- GI50 [2]: 4.49 µM
- GI50 (UACC-62): 4.38 µM
- GI50 (TK-10): 4.77 µM
- GI50 (IGROV-1): 11.9 µM
- GI50 (Malme-3M): 4.19 µM
- GI50 [3]: 2.87 µM
- GI50 [9]: 0.549 µM
- GI50 (SNB-19): 11 µM
- GI50 [4]: > 100 µM
- GI50 (SF-268): 7.52 µM
- GI50 (HOP-62): 7.15 µM
- GI50 (A498): 4.28 µM
- GI50 [5]: 6.04 µM
- GI50 [6]: 26.7 µM
- GI50 [7]: 6.22 µM
- GI50 [8]: 2.04 µM
